The text below walks through data of patent US20230183234A1, “IAP ANTAGONIST COMPOUNDS AND INTERMEDIATES AND METHODS FOR SYNTHESIZING THE SAME” (Otsuka Pharmaceutical Co., Ltd., priority 2020, published 2023).

This data set is described as follows: Storage stability: level of aldehyde impurity of formula (XXV), HPLC peak at RRT 1.3. It is filed as physicochemical. Particulars: stored at 2-8° C. As to the method:
Based on experimental data, there is a correlation between the palladium content in the final end-product and drug substance of formula (XXIII) and the oxidative degradation of an aldehyde impurity. […] The degradation is manifested as an aldehyde impurity peak of formula (XXV) appearing at a relative retention time (RRT) of 1.3.
This impurity peak is found to be no more than 0.2% a/a when stored at 2-8° C., but higher levels are observed at elevated temperatures. The experimental results are depicted in FIGS. 6-7 and Tables 1, 4 and 5 for drug substance lots and corresponding formulations outlined in Tables 1-3.
The stability data and effect of palladium content on aldehyde impurity represented by the area percent of RRT 1.3 at a storage condition of 25° C. and 60% RH is provided in Table 4 and FIG. 6.
The effect of temperature on stability and the level of aldehyde impurity represented by the area percent of RRT 1.3 is provided in Table 5 and FIG. 7.

Each structure is given as a SMILES string.

Regarding `C[C@@H]1CN(CC(=O)N2CC(C)(C)c3nc(CO)c(Cc4ccc(F)cc4)cc32)[C@@H](CN2CCOC[C@H]2C)CN1.C[C@H](O)C(=O)O` [formula (XXIII)], the “impurity peak level at RRT 1.3 (aldehyde impurity of formula (XXV))” value is reported as “no more than 0.2 % a/a”.
